Consider 24 molecules from PubChem BioAssay AID192 (DTP/NCI, 2004).

The test system of the assay is BDF1 mice, B16 melanoma ip, median survival T/C. As to the kind of experiment: NCI In Vivo Anticancer Drug Screen. Data for tumor model B16 Melanoma (intraperitoneal) in B6D2F1 (BDF1) mice. The conditions noted are these: endpoint: median survival time, higher = longer survival. A digest of the protocol: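 Values are ratios of treated (T) to vehicle-control (C) measurements of survival or tumor size in tumor-bearing mice.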

[1] abbreviates: dose: 25.0 mg/kg/injection, schedule: Q01DX009 (ip), vehicle: saline with Tween-80.
Setting [2] is: dose: 50.0 mg/kg/injection, schedule: Q01DX009 (ip), vehicle: saline with Tween-80.
Setting [3] is: dose: 100.0 mg/kg/injection, schedule: Q01DX009 (ip), vehicle: saline with Tween-80.
The mark [4] stands for this setting: dose: 25.0 mg/kg/injection, schedule: Q01DX009 (ip), vehicle: Klucel (hydroxypropylcellulose) (HPC).
Setting [5] is: dose: 50.0 mg/kg/injection, schedule: Q01DX009 (ip), vehicle: Klucel (hydroxypropylcellulose) (HPC).
The mark [6] stands for this setting: dose: 100.0 mg/kg/injection, schedule: Q01DX009 (ip), vehicle: Klucel (hydroxypropylcellulose) (HPC).
Where [7] appears, read: dose: 200.0 mg/kg/injection, schedule: Q01DX009 (ip), vehicle: Klucel (hydroxypropylcellulose) (HPC).
Setting [8] is: dose: 12.5 mg/kg/injection, schedule: Q01DX009 (ip), vehicle: saline with Tween-80.
Where [9] appears, read: dose: 6.25 mg/kg/injection, schedule: Q01DX009 (ip), vehicle: water.
The mark [10] stands for this setting: dose: 12.5 mg/kg/injection, schedule: Q01DX009 (ip), vehicle: water.
The mark [11] stands for this setting: dose: 16.0 mg/kg/injection, schedule: Q01DX009 (ip), vehicle: saline.
The mark [12] stands for this setting: dose: 32.0 mg/kg/injection, schedule: Q01DX009 (ip), vehicle: saline.
[13] abbreviates: dose: 64.0 mg/kg/injection, schedule: Q01DX009 (ip), vehicle: saline.
Setting [14] is: dose: 128.0 mg/kg/injection, schedule: Q01DX009 (ip), vehicle: saline.
Where [15] appears, read: dose: 256.0 mg/kg/injection, schedule: Q01DX009 (ip), vehicle: saline.
Setting [16] is: dose: 512.0 mg/kg/injection, schedule: Q01DX009 (ip), vehicle: saline.
[17] abbreviates: dose: 100.0 mg/kg/injection, schedule: Q01DX009 (ip), vehicle: saline.
Where [18] appears, read: dose: 200.0 mg/kg/injection, schedule: Q01DX009 (ip), vehicle: saline.
Where [19] appears, read: dose: 50.0 mg/kg/injection, schedule: Q01DX009 (ip), vehicle: saline.
Where [20] appears, read: dose: 200.0 mg/kg/injection, schedule: Q01DX009 (ip), vehicle: saline with Tween-80.
Setting [21] is: dose: 400.0 mg/kg/injection, schedule: Q01DX009 (ip), vehicle: saline with Tween-80.

Several values for one entry are separate records, joined by “and”; a condition that tells them apart may be missing. Equal values may be shown once. Toxic doses and inconclusive results are not listed.

Consider `Clc1ccc(CN2COc3c(ccc4cccnc34)C2)cc1Cl`, for which the T/C under setting [1] was 106 % of control, the T/C under setting [2] is 108 % of control and the T/C under setting [3] was 107 % of control.

With `O=C1C(NC(=O)C2CCCCC2)=C(N2CC2)C(=O)C(NC(=O)C2CCCCC2)=C1N1CC1`, the T/C reads like this: under setting [4], 109 % of control; under setting [5], 102 % of control.

Turning to `CC1CCCCN1CCNc1ccc(CO)c2sc3ccccc3c(=O)c12` (configuration not stated), the T/C under setting [1] was 112 % of control, the T/C under setting [2] was 124 % of control and the T/C under setting [3] was 121 % of control.

For `O=[N+]([O-])c1ccc2nc(-c3ccccc3)c(-c3ccccc3)nc2c1`, the T/C was 102 % of control under setting [6] and 88 % of control under setting [7].

Take `O=C(Nc1ccc([N+](=O)[O-])cc1)Nc1nccs1`: for the setting “dose: 50.0 mg/kg/injection, schedule: Q01DX009 (ip), vehicle: distilled water + Tween-80”, the T/C was 152 % of control.

Regarding `CC/C(=C/C(F)(F)C(F)(F)C(F)(F)F)[N+](=O)[O-]`, the T/C was 101 % of control (dose: 12.5 mg/kg/injection, schedule: Q01DX009 (ip), vehicle: Klucel (hydroxypropylcellulose) (HPC)); 87 % of control under setting [4]; 87 % of control under setting [5].

As for `CCCC[P+](CCCC)(CCCC)C(C)C`, the T/C was 106 % of control under setting [8] and 104 % of control under setting [1].

On to `COc1cccc2c1C(=O)c1c(O)c3c(c(O)c1C2=O)C[C@@](O)(C(=O)CN1CCOCC1)C[C@@H]3OC1CC(N)C(O)C(C)O1` (some centres not stated), for which the T/C was 159 % of control (dose: 3.13 mg/kg/injection, schedule: Q01DX009 (ip), vehicle: water); 153 % of control under setting [9]; 157 % of control under setting [10]; 157 % of control (dose: 25.0 mg/kg/injection, schedule: Q01DX009 (ip), vehicle: water).

On to `N[C@H](C(=O)O)[C@H]1ON=C(Cl)[C@@H]1O`, for which the T/C reads like this: (dose: 4.0 mg/kg/injection, schedule: Q01DX009 (ip), vehicle: saline) 90 % of control; (dose: 8.0 mg/kg/injection, schedule: Q01DX009 (ip), vehicle: saline) 94 % of control; under setting [11], 103 % of control; under setting [12], 106 % of control; under setting [13], 102 % of control and 115 % of control; under setting [14], 101 % of control. The T/C was 107 % of control under setting [15] and 109 % of control under setting [16].

On to `O=c1ccn(C2OC(CO)C(O)C2O)c(=O)[nH]1` (configuration not stated), for which the T/C runs as follows: under setting [11], 100 % of control; (dose: 32.0 mg/kg/injection, schedule: Q01DX009 (ip), vehicle: Klucel (hydroxypropylcellulose) (HPC)) 98 % of control and 104 % of control; under setting [12], 96 % of control and 101 % of control; (dose: 64.0 mg/kg/injection, schedule: Q01DX009 (ip), vehicle: Klucel (hydroxypropylcellulose) (HPC)) 99 % of control and 101 % of control; under setting [13], 93 % of control and 98 % of control; (dose: 128.0 mg/kg/injection, schedule: Q01DX009 (ip), vehicle: Klucel (hydroxypropylcellulose) (HPC)) 103 % of control. The T/C is 101 % of control and 114 % of control under setting [14]; 97 % of control and 103 % of control (dose: 256.0 mg/kg/injection, schedule: Q01DX009 (ip), vehicle: Klucel (hydroxypropylcellulose) (HPC)); 100 % of control and 110 % of control under setting [15]; 102 % of control and 108 % of control (dose: 512.0 mg/kg/injection, schedule: Q01DX009 (ip), vehicle: Klucel (hydroxypropylcellulose) (HPC)); 105 % of control under setting [16].

Turning to `CC1=CC(=NN=c2cc(C)n([O-])c(C)c2)C=C(C)[N+]1=O`, the T/C is 111 % of control under setting [8], 115 % of control under setting [1] and 118 % of control under setting [2].

For the molecule `c1ccc(CCN2CCC(CCc3c[nH]c4ccccc34)CC2)cc1`, the T/C was 90 % of control under setting [8], 103 % of control under setting [1] and 94 % of control under setting [2].

In the case of `N#CCc1ccccc1S(=O)(=O)O`, the T/C is, setting by setting: under setting [17], 103 % of control; under setting [18], 104 % of control; (dose: 400.0 mg/kg/injection, schedule: Q01DX009 (ip), vehicle: saline) 104 % of control.

Regarding `O=C(O)c1ccccc1C(=O)c1ccc(CBr)cc1`, the T/C is 100 % of control (dose: 0.05 mg/kg/injection, schedule: Q01DX009 (ip), vehicle: saline); 97 % of control (dose: 0.1 mg/kg/injection, schedule: Q01DX009 (ip), vehicle: saline); 100 % of control (dose: 0.2 mg/kg/injection, schedule: Q01DX009 (ip), vehicle: saline); 91 % of control (dose: 0.38 mg/kg/injection, schedule: Q04DX003 (ip), vehicle: saline with Tween-80); 95 % of control (dose: 0.75 mg/kg/injection, schedule: Q04DX003 (ip), vehicle: saline with Tween-80); 87 % of control (dose: 1.5 mg/kg/injection, schedule: Q01DX009 (ip), vehicle: saline with Tween-80). Moreover, the T/C reads like this: (dose: 1.5 mg/kg/injection, schedule: Q04DX003 (ip), vehicle: saline with Tween-80) 100 % of control; (dose: 1.56 mg/kg/injection, schedule: Q04DX003 (ip), vehicle: saline with Tween-80) 100 % of control.

Consider `CC(C)[S][Pb]([c]1ccccc1)([c]1ccccc1)[c]1ccccc1`, for which the T/C is, setting by setting: (dose: 0.3 mg/kg/injection, schedule: Q01DX009 (ip), vehicle: gum acacia) 97 % of control; (dose: 0.6 mg/kg/injection, schedule: Q01DX009 (ip), vehicle: gum acacia) 91 % of control; (dose: 1.25 mg/kg/injection, schedule: Q01DX009 (ip), vehicle: gum acacia) 89 % of control.

In the case of `Nc1ccc(Cl)cc1N`, the T/C under setting [8] was 104 % of control, the T/C under setting [1] is 105 % of control, the T/C under setting [2] is 102 % of control and the T/C under setting [3] was 99 % of control.

For the molecule `NCC1OC(OC2C(N)CC(N)C(O)C2OC2OC(CO)C(O)C2O)C(N)C(O)C1O` (configuration not stated), the T/C reads like this: (dose: 12.5 mg/kg/injection, schedule: Q01DX009 (ip), vehicle: saline) 93 % of control; (dose: 25.0 mg/kg/injection, schedule: Q01DX009 (ip), vehicle: saline) 100 % of control; under setting [19], 93 % of control; under setting [17], 96 % of control.

For `Cc1ccc([N+](=O)[O-])c(C)c1`, the T/C is 94 % of control under setting [6]; 102 % of control under setting [7]; 94 % of control (dose: 400.0 mg/kg/injection, schedule: Q01DX009 (ip), vehicle: Klucel (hydroxypropylcellulose) (HPC)).

With `O=C(/C=C\c1ccccc1)/C=C/c1ccccc1`, the T/C by setting is: under setting [3], 104 % of control; (dose: 100.0 mg/kg/injection, schedule: Q04DX003 (ip), vehicle: saline with Tween-80) 102 % of control; under setting [20], 96 % of control; (dose: 200.0 mg/kg/injection, schedule: Q04DX003 (ip), vehicle: saline with Tween-80) 100 % of control; under setting [21], 92 % of control; (dose: 400.0 mg/kg/injection, schedule: Q04DX003 (ip), vehicle: saline with Tween-80) 102 % of control.

As for `O=C(N[C@H](CO)[C@H](O)c1ccc([N+](=O)[O-])cc1)C(Cl)Cl`, the T/C by setting is: under setting [2], 100 % of control; under setting [3], 99 % of control; under setting [20], 88 % of control; under setting [21], 88 % of control; (dose: 800.0 mg/kg/injection, schedule: Q01DX009 (ip), vehicle: saline with Tween-80) 87 % of control.

For `CSc1ccc(N=Cc2ccc3c(c2)OCO3)cc1`, the T/C reads like this: under setting [6], 90 % of control; under setting [7], 88 % of control.

For the molecule `CC(=O)Nc1cc(NC(C)=O)cc(N(CCCl)CCCl)c1`, the T/C was 119 % of control under setting [9] and 115 % of control under setting [10].

Turning to `C[N+](C)(C)c1nc(N)nc2c1ncn2C1OC(CO)C(O)C1O` (configuration not stated), the T/C is 106 % of control under setting [19], 103 % of control under setting [17] and 109 % of control under setting [18].

Consider `Cc1ccc(S(=O)(=O)NC(=S)S)cc1`, for which the T/C runs as follows: under setting [8], 88 % of control; under setting [1], 98 % of control and 122 % of control; under setting [2], 97 % of control; under setting [3], 92 % of control and 122 % of control.
